This note sets out measurements from US20140308207A1, “OPEN MICROFLUIDIC DEVICES FOR CHEMOTAXIS, METHODS OF USING SAME, AND APPLICATIONS OF SAME” (priority 2013, published 2014).

One assay has as its system myeloid cells. Kind of assay: Intravital imaging of a mouse with microfluidic coverslip. In kind it is in vivo. Conditions: 50 ng/ml added through coverslip device.
Assay [1] deals with Dictyostelium discoideum cells. The following applies: AX2 cells expressing RBD-GFP, 10 μM cAMP, bulk silica device, cells A-E tracked.
Text: (Jowhar, et al., 2010.) D. discoideum cells expressing the Ras Binding Domain of Rafl and fused to the green fluorescent protein (RBD-GFP) were loaded into the open cell ports and exposed to gradients of the chemoattractant cAMP, as shown in FIG. 1E. […] Each 3 mm cell loading port was exposed to three different sources of cAMP (from three 3.0 μm gradient generating ports) under the control of a syringe or Harvard apparatus pump, which serves as a chemoattractant supply device. The syringe pump was used to apply a constant positive pressure to the loaded syringe, thus, preventing fluctuations in the gradient from potential backflow created by negative pressure.
A number of solitary cells that could be followed continuously were tracked using the Cell Tracker program written in LabVIEW™ software (FIG. 3a).
The starting point for each cell is marked with and X. Scale bar is 10 μm. In the table as shown in FIG. 3(b), V, C.I., and P represent velocity (microns/min.), chemotactic index, and persistence, respectively. The same cells were measured at different points along the traveled path to the source and are scored more than once. […]
In order to visualize the migration of cells and record the specifics of chemotactic response; a program was written with LabVIEW™ software. […] The measured centroids are overlayed on the image data so that the tracking of the cell can be visually verified.
The test system of assay [2] is Dictyostelium discoideum cells.
Text: Cells were readily loaded by micropipetting into the cell loading area where they were allowed to settle and adhere to the silica cover slip. The channels were primed with buffer by a syringe; we observed that the cells randomly migrated on the surface. Once the cells adhered, cAMP was pumped in to form a chemoattractant gradient. To perform this function, a Harvard apparatus pump was used to create positive pressure on the chemoattractant loaded syringe.
As shown in FIG. 6(a), tracks of seven individual cells (A-G) migrating toward the cAMP source openings (open circles). The starting point for each cell is marked with and X. Scale bar is 20 μm. B.) Quantitation of the migration parameters for cells A-G. In the table as shown in FIG. 6(b), V, C.I., and P represent velocity (microns/min.), chemotactic index, and persistence, respectively. The multiple data points in the table for cells A-G represent different sections of the path as the cell traveled toward the cAMP source.
The cell buffer was used for water immersion.
The device was connected to an inlet and outlet syringe on a Harvard Apparatus syringe pump using microfluidic tubing. […]
In order to visualize the migration of cells and record the specifics of chemotactic response; a program was written with LabVIEW™ software. […] The measured centroids are overlayed on the image data so that the tracking of the cell can be visually verified. […]

In the case of “epidermal growth factor: growth factor added through the microfluidic coverslip to alter myeloid cell migration”, the “migration rates of myeloid cells” value in the assay on myeloid cells is listed as “migration rates altered”.

For the compound `Nc1ncnc2c1ncn2[C@@H]1O[C@@H]2COP(=O)(O)O[C@H]2[C@H]1O` [cAMP, cyclic adenosine monophosphate], the “chemotaxis indices and persistence toward the source” value in assay [1] was “strong chemotaxis indices and persistence”. Besides, the “chemotaxis indices and persistence” value in assay [2] (AX2 cells expressing RBD-GFP, 100 nM cAMP, silica coverslip device with five ports, cells A-G tracked) was “good chemotaxis indices and persistence”. The “cell migration toward gradient ports” value in assay [2] (cells expressing LimE-RFP, cover slip device with three 15 μm ports, upright microscope, 80-minute series) was “rapidly migrated towards and into the cAMP gradient cover slip ports”.
